PMC6271085, “Synthesis and Cytotoxic Evaluation of a Series of 2-Amino-Naphthoquinones against Human Cancer Cells” (Molecules, 2014)
≈ marks a conversion by molar mass, not a printed value. Where “and” joins values, the source holds several entries; their conditions need not be identical. Equal values may be shown once. Read-outs that look alike come from different tables or passages of the source.

How the values were obtained:
[1] = system: HCT-8 (colon) cells; test: MTT cytotoxicity assay, HCT-8; type: cell-based; conditions: Homo sapiens; for inhibition at 5 µg/mL: HCT-8, 5 µg/mL, 72 h, MTT, read-out: Percentage of inhibition of cell growth (GI%), average; for IC50: HCT-8, 72 h, HCT-8, 72h exposure
Excerpt: (§1) This experiment evaluated the cytotoxicity of aminonaphthoquinones (ANPQs) against human cancer cells, in vitro. This analysis is part of an initial screening for determination of the potential antitumor of these samples. The human cancer cell strains used were SF-295 (glioblastoma-human), MDAMB-435 (melanoma), HCT-8 (colon), HCT-116 (colon), HL-60 (leukemia), OVCAR-8 (ovarian cancer), NCI-H358M (human bronchoalveolar lung carcinoma) and PC3-M (highly metastatic prostate cancer cell line). All cancer cells were provided by the National Cancer Institute (Rockville, MD, USA) and were cultured in RPMI 1640 supplemented with 10% fetal bovine serum and 1% antibiotics, maintained at 37 °C and atmosphere containing 5% CO2. The peripheral blood mononuclear cells (PBMC) were isolated by gradient of density (Ficoll-Hypaque) and cultivated in RPMI 1640 medium, supplemented with bovine foetal serum (20%), antibiotic (1%) and phytohemagglutinin (4%). The cells were maintained at 37 °C and atmosphere containing 5% CO2.
(§2) The different samples of ANPQs were diluted in pure sterile DMSO. The substances were tested at a concentration of 5 µg·mL^−1. In order to determine the IC50 the substances were tested at increasing concentrations in serial dilutions (5–0.010 µg·mL^−1).
(§3) Analysis of cytotoxicity by the MTT method has been used in the screening program at the National Cancer Institute of the United States (NCI), which tests over 10,000 samples per year. It is a rapid, sensitive and inexpensive test. It was first described by Mosman as having the ability to analyze the viability and the metabolic state of cells. It is a colorimetric analysis based on conversion of the salt 3-(4,5-dimethyl-2-thiazole)-2,5-diphenyl-2H-tetrazolium bromide (MTT) to formazan-blue by the mitochondrial enzymes found only in metabolically active cells. The study of the cytotoxicity by MTT method allows easily defining the cytotoxicity but not the mechanism of action.
(§4) The cells were plated at a concentration of 0.1 × 10^6 cell mL^−1 to OVCAR-8, NCI-H358M, PC3-M, SF-295 and MDA-MB435 strains, 0.7 × 10^5 cell mL^−1 to HCT-8 and HCT-116 strains, 0.3 × 10^6 to HL-60 strain, 1.0 × 10^6 cell mL^−1 to PBMC. The plates were incubated for 72 h at 5% CO2 at 37 °C. After, they were centrifuged and the supernatant removed. Then the solution of MTT (tetrazolium salt, 150 µL) was added, and the plates were incubated for 3 h. The absorbance was read after dissolving the precipitate with 150 µL of pure DMSO in a spectrophotometer plate at 595 nm.

[2] = system: MDAMB-435 cells; test: MTT cytotoxicity assay, MDAMB-435; type: cell-based; conditions: Homo sapiens; for inhibition at 5 µg/mL: MDA-MB-435, MDAMB-435, 5 µg/mL, 72 h, MTT, read-out: Percentage of inhibition of cell growth (GI%), average; for IC50: MDA-MB-435, 72 h, MDAMB-435, 72h exposure
Excerpt: as §1, §2, §3, §4

[3] = system: SF-295 (glioblastoma) cells; test: MTT cytotoxicity assay, SF-295; type: cell-based; conditions: Homo sapiens; for inhibition at 5 µg/mL: SF-295, 5 µg/mL, 72 h, MTT, read-out: Percentage of inhibition of cell growth (GI%), average; for IC50: SF-295, 72 h, SF-295, 72h exposure
Excerpt: as §1, §2, §3, §4

[4] = system: NCI-H358M (bronchoalveolar lung carcinoma) cells; test: MTT cytotoxicity assay, NCI-H358M; type: cell-based; conditions: Homo sapiens, 72h exposure
Excerpt: as §1, §2, §3, §4

[5] = system: OVCAR-8 (ovarian cancer) cells; test: MTT cytotoxicity assay, OVCAR-8; type: cell-based; conditions: Homo sapiens; OVCAR-8, 72h exposure
Excerpt: as §1, §2, §3, §4

[6] = MTT cytotoxicity assay, PBMC; type: cell-based; conditions: peripheral blood mononuclear cells (PBMC); PBMC normal cells, 72h exposure
Excerpt: as §1, §2, §3, §4

[7] = system: HL-60 (leukemia) cells; test: MTT cytotoxicity assay, HL-60; type: cell-based; conditions: Homo sapiens; HL-60, 72h exposure
Excerpt: as §1, §2, §3, §4

[8] = system: HCT-116 (colon) cells; test: MTT cytotoxicity assay, HCT-116; type: cell-based; conditions: Homo sapiens; HCT-116, 72h exposure
Excerpt: as §1, §2, §3, §4

[9] = system: PC3-M (prostate) cells; test: MTT cytotoxicity assay, PC3-M; type: cell-based; conditions: Homo sapiens, PC-3M, 72 h, 72h exposure
Excerpt: as §1, §2, §3, §4

[10] = system: HL-60 (leukemia) cells; parameters: method as in PMID 16042338; conditions: cited from earlier work
[11] = system: HCT-8 (colon) cells; parameters: method as in PMID 16042338; conditions: cited from earlier work

O=C(O)CCCNC1=CC(=O)c2ccccc2C1=O [compound 11, 4-(1,4-Dioxo-1,4-dihydronaphthalen-2-ylamino)butanoic acid]
inhibition at 5 µg/mL [1]: 61.4% | inhibition at 5 µg/mL [2]: 11.1% | inhibition at 5 µg/mL [3]: 61.2%

O=C(O)CCNC1=CC(=O)c2ccccc2C1=O [compound 3, 3N-(1,4-Dioxo-1,4-dihydronaphthalen-2-yl)propanoic acid]
inhibition at 5 µg/mL [1]: 56% | inhibition at 5 µg/mL [2]: 26.4% | inhibition at 5 µg/mL [3]: 56% | melting point: 198 to 200 °C

O=C(O)CNC1=CC(=O)c2ccccc2C1=O [compound 2, 2N-(1,4-Dioxo-1,4-dihydronaphthalen-2-yl)acetic acid]
IC50 [4]: > 5 µg/mL and > 21.6 µM | IC50 [5]: 3.89 µg/mL and 16.8 µM | IC50 [1]: 0.89 µg/mL and 3.84 µM | inhibition at 5 µg/mL [1]: 81.7% | IC50 at 72 h [6]: 5.51 µg/mL and 23.8 µM | IC50 [7]: 0.7 µg/mL and 3.02 µM | IC50 [8]: 1.31 µg/mL and 5.66 µM | IC50 [9]: > 5 µg/mL and > 21.6 µM | IC50 [2]: 1.21 µg/mL and 5.23 µM | inhibition at 5 µg/mL [2]: 100% | IC50 [3]: 0.57 µg/mL and 2.46 µM | inhibition at 5 µg/mL [3]: 81.1%

COc1cccc2c1C(=O)c1c(O)c3c(c(O)c1C2=O)C[C@@](O)(C(=O)CO)C[C@@H]3O[C@H]1C[C@H](N)[C@H](O)[C@H](C)O1 [Dox, Doxorubicin, reference compound]
IC50 [4]: 0.9 µg/mL and 1.65 µM | IC50 [5]: 0.26 µg/mL (≈ 0.478 µM) | IC50 [1]: 0.07 µg/mL and 130 nM | IC50 at 72 h [6]: 0.23 µg/mL and 420 nM | IC50 [7]: 0.02 µg/mL and 30 nM | IC50 [8]: 0.01 µg/mL and 20 nM | IC50 [9]: 0.2 µg/mL and 360 nM | IC50 [2]: 0.48 µg/mL and 830 nM | IC50 [3]: 0.23 µg/mL

CCOC(=O)[C@H](C)NC1=CC(=O)c2ccccc2C1=O [compound 9, Ethyl [(S) 2-(1,4-dioxo-1,4-dihydronaphthalen-2-ylamino)] propanoate]
IC50 [4]: 0.98 µg/mL and 3.58 µM | IC50 [5]: 1.88 µg/mL and 6.87 µM | IC50 [1]: 1.33 µg/mL and 4.86 µM | inhibition at 5 µg/mL [1]: 75.4% | IC50 at 72 h [6]: 17.6 µg/mL and 64.3 µM | IC50 [7]: 1.74 µg/mL and 6.35 µM | IC50 [8]: 3.11 µg/mL and 11.4 µM | IC50 [9]: 2.62 µg/mL and 9.57 µM | IC50 [2]: 1.18 µg/mL and 4.31 µM | inhibition at 5 µg/mL [2]: 100% | IC50 [3]: 1.68 µg/mL and 6.13 µM | inhibition at 5 µg/mL [3]: 75.1% | melting point: 65 to 68 °C

CCOC(=O)CCCNC1=CC(=O)c2ccccc2C1=O [compound 10, Ethyl 4-(1,4-dioxo-1,4-dihydronaphthalen-2-ylamino)butanoate]
inhibition at 5 µg/mL [1]: 49.6% | inhibition at 5 µg/mL [2]: 59.1% | inhibition at 5 µg/mL [3]: 49.2%

C[C@H](NC1=CC(=O)c2ccccc2C1=O)C(=O)O [compound 5, N-(1,4-Dioxo-1,4-dihydronaphthalen-2-yl)-L-alanine]
IC50 [4]: 0.9 µg/mL and 3.36 µM | IC50 [5]: 2.36 µg/mL and 9.61 µM | IC50 [1]: 3380 nM | inhibition at 5 µg/mL [1]: 84.1% | IC50 at 72 h [6]: 7.34 µg/mL and 29.9 µM | IC50 [7]: 1.05 µg/mL and 4.27 µM | IC50 [8]: 1.11 µg/mL and 4.52 µM | IC50 [9]: 1.61 µg/mL (≈ 6.57 µM) | IC50 [2]: 1990 nM | inhibition at 5 µg/mL [2]: 100% | IC50 [3]: 2560 nM | inhibition at 5 µg/mL [3]: 83.8%

O=C1C=C(N2CCC[C@H]2C(=O)O)C(=O)c2ccccc21 [compound 4, N-(1,4-Dioxo-1,4-dihydronaphthalen-2-yl)-L-proline]
inhibition at 5 µg/mL [1]: 59.1% | inhibition at 5 µg/mL [2]: 36.7% | inhibition at 5 µg/mL [3]: 59.3% | melting point: 164 to 167 °C (dec.)

CCOC(=O)CNC1=CC(=O)c2ccccc2C1=O [compound 7, Ethyl 2N-(1,4-dioxo-1,4-dihydronaphthalen-2-yl)acetate]
IC50 [4]: 0.64 µg/mL and 2.46 µM | IC50 [5]: 2 µg/mL and 7.7 µM | IC50 [1]: 1.84 µg/mL and 7.09 µM | inhibition at 5 µg/mL [1]: 99.5% | IC50 at 72 h [6]: 9 µg/mL and 34.7 µM | IC50 [7]: 1.24 µg/mL and 4.77 µM | IC50 [8]: 2.13 µg/mL and 8.2 µM | IC50 [9]: 1.63 µg/mL and 6.28 µM | IC50 [2]: 1.33 µg/mL and 5.12 µM | inhibition at 5 µg/mL [2]: 100% | IC50 [3]: 0.83 µg/mL and 3.19 µM | inhibition at 5 µg/mL [3]: 99.5% | melting point: 93 to 95 °C

CCOC(=O)CCNC1=CC(=O)c2ccccc2C1=O [compound 8, Ethyl 3N-(1,4-dioxo-1,4-dihydronaphthalen-2-yl)propanoate]
inhibition at 5 µg/mL [1]: 28.2% | inhibition at 5 µg/mL [2]: 11.7% | inhibition at 5 µg/mL [3]: 32.7% | melting point: 120 to 122 °C

Cc1cc(=O)c2c(O)c([C@@H]3O[C@H](CO)[C@@H](O)[C@H](O)[C@H]3O)c(O)cc2o1 [biflorin]
IC50 [10]: 1950 nM | IC50 [11]: 0.88 µg/mL (≈ 2.48 µM)

O=C1C=C(N[C@@H](Cc2ccccc2)C(=O)O)C(=O)c2ccccc21 [compound 6, N-(1,4-Dioxo-1,4-dihydronaphthalen-2-yl)-L-phenylalanine]
IC50 [4]: 0.82 µg/mL and 2.54 µM | IC50 [5]: 1.87 µg/mL and 5.81 µM | IC50 [1]: 1.59 µg/mL and 4.94 µM | inhibition at 5 µg/mL [1]: 86.1% | IC50 at 72 h [6]: 12.2 µg/mL and 37.8 µM | IC50 [7]: 1.31 µg/mL and 4.07 µM | IC50 [8]: 2.15 µg/mL and 6.67 µM | IC50 [9]: 1.7 µg/mL and 5.28 µM | IC50 [2]: 1.46 µg/mL and 4.53 µM | inhibition at 5 µg/mL [2]: 100% | IC50 [3]: 0.65 µg/mL and 2.01 µM | inhibition at 5 µg/mL [3]: 86.1%
